Here are results for 1 substance from patent US7070768B2, “Method for imparting artificial tan to human skin” (Allergan, Inc., priority 2003, dated 2006).

For one experiment, the system named is eyelashes. The following applies: Lumigan ophthalmic solution, applied in the FDA approved manner; cited from earlier work.
For the next experiment, the system named is human skin. As to the kind of experiment: Oral bimatoprost tablets in a patient, skin color. The following applies: oral tablet, 2 x 100 mg per dose, 3 doses per day, four months. The format is in vivo. The text has this:
A patient began taking bimatoprost as a tablet.

Take “cyclopentane N-ethyl heptanamide-5-cis-2-(3α-hydroxy-5-phenyl-1-trans-pentenyl)-3,5-dihydroxy, [bimatoprost, cyclopentane N-ethyl heptanamide-5-cis-2-(3α-hydroxy-5-phenyl-1-trans-pentenyl)-3,5-dihydroxy, [1α,2β,3α,5α]]”: the growth of eyelashes result with eyelashes was “effective to increase the growth of eyelashes”. Also, in the experiment on human skin, the “skin color after treatment” value is given as “turned to a dark brown color”.
